Data from patent US20040028610A1, “Method of increasing the sensitivity of mammography” (priority 2003, published 2004).
Entries after “also recorded” stand apart in the source; their conditions may differ.

Key:
[1] = system: breast tissue; assay: Treatment with parenteral (intramuscular) androgen preparation, then mammography and manual breast examination; format: in vivo, human (pre and postmenopausal women)
Experimental: Patients in need of breast cancer examinations were provided parenteral administration of androgen preparations in the clinical setting. Lakeview Pharmacy, Inc. prepared the compounded equivalent of Depo-Testosterone (Testosterone Cypionate 200 mg/ml dissolved in Cottonseed Oil and preserved with Benzyl Benzoate USP and Benzyl Alcohol NF.) in a multi-use vial. The androgen preparation was administered in a dose of about 150 mg to about 200 mg per month for the treatment of fibrocystic breast disorders. The treating physician delivered the preparation intramuscularly in a single dose. The preparation was given to approximately 40 pre and postmenopausal women ranging in age from 24 to 80 years of age. The patients were then scheduled for a mammogram at least one month but not more than three months after commencement of administration of the androgen preparation.
(§1) In advance of the mammographic procedure, patients were instructed to not wear deodorant (the crystals cause difficulty in reading the films). […] A Picker Digital Mammogram was used to take the frontal and side views of the breast tissue bilaterally. Minimums of two views were taken per breast. The films were then interpreted by a radiologist with experience in interpreting mammograms and graded with the BI-RADS system.

[2] = system: breast tissue; assay: Treatment with topical androgen preparation (PCA cream), then mammography and manual breast examination; format: in vivo, human (pre and postmenopausal women)
Description: as §1
Patients in need of breast cancer examinations were provided topical formulations for administration of androgen preparations in the outpatient setting. Lakeview Pharmacy, Inc made up the compounded equivalent of Depo-Testosterone (150 mg of testosterone cypionate mixed in PCA cream) with an application of 6 inches squeezed from a multi-use tube of the mixture and rubbed into the skin on a daily basis. The androgen preparation was administered as a total monthly dose from about 150 mg to about 200 mg. The formulation was given to approximately 15 pre and postmenopausal women ranging in age from 24 to 80 years of age. The patient was then scheduled for a mammogram at least one month but not more than two months after administration of the androgen preparation. Mammography was performed as described in Example 1.

[3] = system: breast tissue; assay: Administration of testosterone to female patients with dense or fibrous breasts (summary statements); format: in vivo, human (pre- and post-menopausal women)
[4] = patients presenting with dense breast tissue and attendant mastalgia
[5] = pre- and post-menopausal women with fibrous or dense breasts

Structure (SMILES)	alteration of the menstrual cycle by the medication [1]	radiographic breast density on mammographic images ([1]; about 150 mg to about 200 mg per month, approximately 40 women, seen after only one monthly treatment, films graded with BI-RADS)	breast palpability by manual examination ([1]; about 150 mg to about 200 mg per month, seen after only one monthly treatment)	mammographic changes in density, patients affected ([1]; most significant in those patients with dense breasts)	lesions requiring 6-month follow up, at second mammogram ([1]; sustained treatment for 6 or more months, some lesions)	effects on radiographic and palpable density after two months of treatment (versus one month) ([1]; two months of androgen treatment prior to examination)	alteration of the menstrual cycle by the medication ([2]; topical)	radiographic breast density on mammographic images ([2]; topical PCA cream daily, total monthly dose about 150 mg to about 200 mg, approximately 15 women, seen after only one monthly treatment)	breast palpability by manual examination ([2]; topical PCA cream daily, total monthly dose about 150 mg to about 200 mg, seen after only one monthly treatment)	mammographic changes in density, patients affected ([2]; topical, most significant in those patients with dense breasts)	lesions requiring 6-month follow up, at second mammogram ([2]; topical, sustained treatment for 6 or more months, some lesions)	effects on radiographic and palpable density after two months of treatment (versus one month) ([2]; topical, two months of androgen treatment prior to examination)	visualization of breast tissue in mammographic procedures ([3]; female patients with dense breast tissue)	mammographic opacity and overall density [3, 4]	palpability of breast tissue during manual examination [3, 4]	number or size of fibrous (fibrocystic) breast lesions [3, 5]	palpable breast density [3, 5]	radiographic density [3, 5]	symptoms secondary to cyclic causes (sense of breast fullness or heaviness) [3, 5]
C[C@]12CC[C@H]3[C@@H](CCC4=CC(=O)CC[C@@]43C)[C@@H]1CC[C@@H]2OC(=O)CCC1CCCC1 [Testosterone Cypionate]	nor did the medication alter the menstrual cycle	appreciable reduction	improved	noted in all patients	disappeared	More significant effects	nor did the medication alter the menstrual cycle	appreciable reduction	improved	noted in all patients	disappeared	More significant effects							
C[C@]12CC[C@H]3[C@@H](CCC4=CC(=O)CC[C@@]43C)[C@@H]1CC[C@@H]2O [testosterone]													significantly improved	marked reduction	significantly improved	decrease; also recorded: reduced	decrease	decrease	eliminated; also recorded: reduced
